# Measurements published in paper PMC6522510 (Nature Communications, 2019).
# Like-named read-outs stand apart in the source and are kept apart here.
# How the values were obtained:
# MOLM-13 [1] = experiment: cells; parameters: species or system AML cell lines (8); Secondary HTS, 10-point dose-response in triplicate, Cell Titer Glo viability, four-parameter fit EC50; conditions: Homo sapiens; 72 h cell viability; read-out: MOLM-13
# MV4-11 [2] = experiment: cells; parameters: species or system AML cell lines (8); conditions: Homo sapiens, MV4-11, 72 h, read-out: MV4-11
# CHRF288-11 [3] = experiment: cells; parameters: species or system AML cell lines (8); conditions: 72 h, read-out: CHRF288-11
# CMK [4] = experiment: cells; parameters: species or system AML cell lines (8); conditions: Homo sapiens, 72 h, read-out: CMK
# CMS [5] = experiment: cells; parameters: species or system AML cell lines (8); conditions: 72 h, read-out: CMS
# M07e [6] = experiment: cells; parameters: species or system AML cell lines (8); conditions: M-07e, 72 h, read-out: M07e
# ML-2 = experiment: cells; parameters: species or system AML cell lines (8); conditions: Homo sapiens, ML-2, 72 h, read-out: ML-2
# U937 [7] = experiment: cells; parameters: species or system AML cell lines (8); conditions: Homo sapiens, U-937, 72 h, read-out: U937
# MOLM-13 [8] = experiment: Secondary dose-response HTS, Cell Titer Glo; assay type: cell-based, human; conditions: for EC50: Homo sapiens
# MV4-11 [9] = experiment: Secondary dose-response HTS, Cell Titer Glo; assay type: cell-based, human; conditions: for EC50: Homo sapiens
# CHRF288-11 [10] = experiment: Secondary dose-response HTS, Cell Titer Glo; assay type: cell-based, human; conditions: for EC50: Homo sapiens
# CMK [11] = experiment: Secondary dose-response HTS, Cell Titer Glo; assay type: cell-based, human; conditions: for EC50: Homo sapiens
# CMS [12] = experiment: Secondary dose-response HTS, Cell Titer Glo; assay type: cell-based, human; conditions: for EC50: Homo sapiens
# M07e [13] = experiment: Secondary dose-response HTS, Cell Titer Glo; assay type: cell-based, human; conditions: for EC50: Homo sapiens, M-07e
# ML2 = experiment: Secondary dose-response HTS, Cell Titer Glo; assay type: cell-based, human; conditions: for EC50: Homo sapiens
# U937 [14] = experiment: Secondary dose-response HTS, Cell Titer Glo; assay type: cell-based, human; conditions: for EC50: Homo sapiens, U-937
# [15] = test system: MLLr primary AML blast samples; experiment: Ex vivo drug treatment of primary AML blasts on mesenchymal stromal cells; assay type: cell-based; conditions: Homo sapiens; primary blasts on MSC, 96 h, range over patient samples
# [16] = test system: AMKL primary AML blast samples; experiment: as above; assay type: cell-based; conditions: Homo sapiens; primary blasts on MSC, 96 h
# [17] = MOLM-13, secondary HTS, 72 h, average of triplicate, read-out: EC50 MOLM-13
# [18] = secondary high-throughput screen, MOLM-13, read-out: average effective concentration, MOLM-13
# [19] = MV4-11, secondary HTS, 72 h, average of triplicate, read-out: EC50 MV4-11
# [20] = secondary high-throughput screen, MV4-11, read-out: average effective concentration, MV4-11
# [21] = secondary HTS, 72 h, average of triplicate, read-out: EC50 CHRF288-11
# [22] = secondary high-throughput screen, CMK, read-out: average effective concentration, CMK
# [23] = secondary HTS, 72 h, average of triplicate, read-out: EC50 M07e
# [24] = secondary high-throughput screen, M07e, read-out: average effective concentration, M07e
# [25] = ML-2, secondary HTS, 72 h, average of triplicate, read-out: EC50 ML2
# [26] = secondary high-throughput screen, ML-2, read-out: average effective concentration, ML-2
# [27] = secondary HTS, 72 h, average of triplicate, read-out: EC50 U937
# [28] = secondary high-throughput screen, U937, read-out: average effective concentration, U937
# [29] = secondary high-throughput screen, ML-2
Compound,EC50 (MOLM-13 [1]) [µM],EC50 (MV4-11 [2]) [µM],EC50 (CHRF288-11 [3]) [µM],EC50 (CMK [4]) [µM],EC50 (CMS [5]) [µM],EC50 (M07e [6]) [µM],EC50 (ML-2) [µM],EC50 (U937 [7]) [µM],other results
CCc1ccc(CCOc2ccc(CC3SC(=O)NC3=O)cc2)nc1 (stereo not shown) [PIOGLITAZONE],> 10,> 10,> 10,> 10,> 10,> 10,> 10,> 10,–
O=P1(N(CCCl)CCCl)NCCCO1 (stereo not shown) [CYCLOPHOSPHAMIDE],> 10,> 10,> 10,> 10,> 10,> 10,> 10,> 10,"average effective concentration, MOLM-13 (MOLM-13 [8]): Inactive; average effective concentration, MV4-11 (MV4-11 [9]): Inactive; average effective concentration, CHRF288-11 (CHRF288-11 [10]): Inactive; average effective concentration, CMK (CMK [11]): Inactive; average effective concentration, CMS (CMS [12]): Inactive; average effective concentration, M07e (M07e [13]): Inactive; average effective concentration, ML-2 (ML2): Inactive; average effective concentration, U937 (U937 [14]): Inactive"
"CC(C)C[C@H](NC(=O)[C@H](Cc1ccccc1)NC(=O)c1cnccn1)B(O)O [Bortezomib, reference compound]",–,–,–,–,–,–,–,–,"EC50 (MOLM-13 [8]; [17]): 0.002 µM; EC50 (MOLM-13 [8]; [18]): 0.0017 µM; EC50 (MV4-11 [9]; [19]): 0.002 µM; EC50 (MV4-11 [9]; [20]): 0.0023 µM; EC50 (CHRF288-11 [10]; [21]): 0.002 µM; EC50 (CMK [11]; CMK, secondary HTS, 72 h, average of triplicate, read-out: EC50 CMK): 0.01 µM; EC50 (CMK [11]; [22]): 0.0076 µM; EC50 (CMS [12]; secondary HTS, 72 h, average of triplicate, read-out: EC50 CMS): 0.001 µM; EC50 (M07e [13]; [23]): 0.001 µM; EC50 (M07e [13]; [24]): 0.0015 µM; EC50 (ML2; [25]): 0.001 µM; EC50 (ML2; [26]): 0.0012 µM; EC50 (U937 [14]; [27]): 0.02 µM; EC50 (U937 [14]; [28]): 0.021 µM; IC50 [15]: 0.0016 to 0.005 µM; IC50 [16]: 0.02 µM"
Cc1c(CN2CCN(C(=O)[C@H](C)O)CC2)sc2c(N3CCOCC3)nc(-c3cnc(N)nc3)nc12 [GDC-0980],> 10,> 10,> 10,–,> 10,> 10,> 10,> 10,EC50 (CMK [11]; [22]): 0.52 µM
CO[C@H]1C[C@@H]2CC[C@@H](C)[C@@](O)(O2)C(=O)C(=O)N2CCCC[C@H]2C(=O)O[C@H]([C@H](C)C[C@@H]2CC[C@@H](OCCO)[C@H](OC)C2)CC(=O)[C@H](C)/C=C(\C)[C@@H](O)[C@@H](OC)C(=O)[C@H](C)C[C@H](C)/C=C/C=C/C=C/1C [EVEROLIMUS],> 10,> 10,> 10,> 10,> 10,> 10,> 10,> 10,–
O=C(O)CCCc1ccc(N(CCCl)CCCl)cc1 [CHLORAMBUCIL],–,–,–,–,–,–,> 10,–,"EC50 (MOLM-13 [8]; [18]): 10 µM; EC50 (MV4-11 [9]; [20]): 8.4 µM; EC50 (CHRF288-11 [10]; HTS, secondary high-throughput screen, CHRF288-11, read-out: average effective concentration, CHRF288-11): 4.9 µM; EC50 (CMK [11]; [22]): 5.9 µM; EC50 (CMS [12]; HTS, secondary high-throughput screen, CMS, read-out: average effective concentration, CMS): 7 µM; EC50 (M07e [13]; secondary high-throughput screen, […], read-out: average effective concentration, M07e): 6.9 µM; average effective concentration, ML-2 (ML2; [29]): Inactive; EC50 (U937 [14]; [28]): 6.1 µM"
O=P1(NCCCl)OCCCN1CCCl (stereo not shown) [IFOSFAMIDE],> 10,> 10,> 10,> 10,> 10,> 10,> 10,> 10,–
CC[C@H](NC(=O)[C@H](C)NC)C(=O)N1C[C@@H](O)C[C@H]1Cc1c(-c2[nH]c3cc(F)ccc3c2C[C@@H]2C[C@H](O)CN2C(=O)[C@H](CC)NC(=O)[C@H](C)NC)[nH]c2cc(F)ccc12 [BIRINAPANT],> 10,> 10,> 10,> 10,> 10,> 10,–,> 10,EC50 (ML2; [26]): 0.001 µM
Cc1oncc1C(=O)Nc1ccc(C(F)(F)F)cc1 [LEFLUNOMIDE],> 10,> 10,> 10,> 10,> 10,> 10,> 10,> 10,–
NC(=O)c1ncn([C@@H]2O[C@H](CO)[C@@H](O)[C@H]2O)n1 [RIBAVIRIN],> 10,> 10,> 10,> 10,> 10,–,> 10,> 10,EC50 (M07e [13]; [24]): 9.3 µM
COC1=CC(=O)O[C@@H](/C=C/c2ccc3c(c2)OCO3)C1 [METHYSTICIN],> 10,> 10,> 10,> 10,> 10,> 10,> 10,> 10,"average effective concentration, MOLM-13 (MOLM-13 [8]; secondary high-throughput screen, MOLM-13): Inactive; average effective concentration, MV4-11 (MV4-11 [9]; secondary high-throughput screen, MV4-11): Inactive; average effective concentration, CHRF288-11 (CHRF288-11 [10]; secondary high-throughput screen, CHRF288-11): Inactive; average effective concentration, CMK (CMK [11]; secondary high-throughput screen, CMK): Inactive; average effective concentration, CMS (CMS [12]; secondary high-throughput screen, CMS): Inactive; average effective concentration, M07e (M07e [13]; secondary high-throughput screen, […]): Inactive; average effective concentration, ML-2 (ML2; [29]): Inactive; average effective concentration, U937 (U937 [14]; secondary high-throughput screen, U937): Inactive"
"Cc1[nH]c2ccccc2c1CCNCc1ccc(/C=C/C(=O)NO)cc1 [Panobinostat, reference compound]",–,–,–,–,–,–,–,–,"EC50 (MOLM-13 [8]; [17]): 0.18 µM; EC50 (MV4-11 [9]; [19]): 0.13 µM; EC50 (CHRF288-11 [10]; [21]): 0.01 µM; EC50 (CMK [11]; CMK, 72 h, read-out: EC50 CMK): 0.003 µM; EC50 (CMK [11]; CMK, read-out: average effective concentration, CMK): 0.00285 µM; EC50 (CMS [12]; HTS, 72 h, read-out: EC50 CMS): 0.03 µM; EC50 (CMS [12]; HTS, read-out: average effective concentration, CMS): 0.028 µM; EC50 (M07e [13]; [23]): 0.005 µM; EC50 (M07e [13]; [24]): 0.00464 µM; EC50 (ML2; [25]): 0.01 µM; EC50 (ML2; [26]): 0.012 µM; EC50 (U937 [14]; [27]): 0.01 µM; IC50 [15]: 0.0009 to 0.0033 µM; IC50 [16]: 0.014 µM"
